Measured values: patent publication US8962322B2, “Enhancers of induced pluripotent stem cell reprogramming” (City of Hope, priority 2012, dated 2015)
Read-outs that look alike come from different tables or passages of the source.

Legend:
[1] = test system: β-catenin-responsive reporter gene Topflash; test: Topflash luciferase reporter assay in CV1 cells (Wnt signaling); format: cell-based; conditions: 1 μM OAC1 or 2 μM BIO, 48 hr
Protocol: Whether OAC1 regulates major signaling pathways that are critical for embryonic stem cell pluripotency was investigated. […] CV1 cells were transfected with the β-catenin-responsive reporter gene Topflash, and the transfected cells were treated with vehicle control or OAC1 (FIG. 6C). The glycogen synthase kinase 3β (GSK3β) inhibitor BIO was included as a positive control (42).
AzaC, 25 μg/ml Vc, 10 nM Am580, 5 μM tranylcypromine, and 0.5 mM VPA. Luciferase reporter assays were performed as described (51) 24 hr after compound treatment or at indicated time points. For Topflash reporter assays, 0.2 μg β-catenin-responsive Topflash reporter gene plasmid was introduced into CV1 cells using trasfection (Bio-Rad). Compounds were added 6 hr after transfection. Luciferase activity was measured 48 hr after compound treatment using the Glo Luciferase Assay System (Promega).

endogenous Oct4 = test: RT-PCR of endogenous Oct4 mRNA in treated MEFs; format: cell-based, mouse; conditions: versus vehicle
Protocol: MEFs were treated with vehicle control or OAC 1 to test whether OAC 1 activates endogenous Oct4 and Nanog gene transcription. […] Oct4, Sox2, and Nanog are central to the transcriptional regulatory hierarchy for ESC pluripotency, forming the core transcriptional regulatory circuitry in ESCs (37). […] OAC1 activated Sox2 mRNA expression, along with Oct4 and Nanog (FIG. 61).
(§1) RT-PCR analysis: Total RNA was purified with Trizol reagent (Invitrogen). Reverse transcription was performed with 1 μg of RNA using Omniscript® Reverse Transcription Kit (Qiagen). Quantitative PCR was performed using iTaq SYBR Green Supermix with Rox (Bio-rad) in Applied Biosystem Step one plus real-time PCR system. […]

Tet1 = test: RT-PCR of Tet1 mRNA in treated MEFs; format: cell-based, mouse; conditions: versus vehicle
Protocol: The up-regulation of Tet1 is intriguing, as this is a gene that converts 5-methylcytosine to 5-hydroxymethylcytosine and may be involved in active DNA demethylation.
as §1

human Oct4 promoter = test: Oct4-luc luciferase reporter assay (stably transfected CV1 cells); format: cell-based; conditions: for fold induction at 1 µM: compound at 1 μM, Oct4-luc cells, triplicates

SMILES: O=C(Nc1cc2cc[nH]c2cn1)c1ccccc1 [OAC1, N-(1H-6-azaindol-5-yl)benzamide]
- effect on Topflash reporter activity [1]: no effect
- endogenous Oct4 mRNA expression (endogenous Oct4): activated
- Tet1 mRNA expression (Tet1): up-regulated
- activation of Oct4-luc at 50 nM (human Oct4 promoter; 50 nM, two days after compound treatment): activated Oct4-luc considerably
- fold induction at 1 µM (human Oct4 promoter; Homo sapiens, CV-1, 24 h, read-out: Oct4-luc Activity): ≥ 1.8
- induction of Oct4-luc, comparison with known reprogramming enhancers (in words) (human Oct4 promoter; OAC1 1 μM, BIO 2 μM, BIX 2 μM, AzaC 2 μM, Vc 25 μg/ml, Am580 10 nM, tranylcypromine 5 μM, VPA 0.5 mM, two days): potent induction
- fold induction at 1 µM (human Oct4 promoter; read-out: Oct4-luc fold Induction): 5
- concentration of highest induction of Oct4-luc (human Oct4 promoter; dose response 50 nM to 1 μM, 2 to 7 days): 1 µM
- activation of human Oct4 reporter (in words) (human Oct4 promoter; triplicate luciferase reporter assays): considerable activation
